Results: ChEMBL document CHEMBL2074494 (Biopharm Drug Dispos, 2004)

Molecular target: ATP-dependent translocase ABCB1 (Homo sapiens, UniProt P08183)
Assay: TP_TRANSPORTER: transepithelial transport in Caco-2 cells
Format: functional, cell-based

Sequence of ATP-dependent translocase ABCB1 (P08183 whole entry): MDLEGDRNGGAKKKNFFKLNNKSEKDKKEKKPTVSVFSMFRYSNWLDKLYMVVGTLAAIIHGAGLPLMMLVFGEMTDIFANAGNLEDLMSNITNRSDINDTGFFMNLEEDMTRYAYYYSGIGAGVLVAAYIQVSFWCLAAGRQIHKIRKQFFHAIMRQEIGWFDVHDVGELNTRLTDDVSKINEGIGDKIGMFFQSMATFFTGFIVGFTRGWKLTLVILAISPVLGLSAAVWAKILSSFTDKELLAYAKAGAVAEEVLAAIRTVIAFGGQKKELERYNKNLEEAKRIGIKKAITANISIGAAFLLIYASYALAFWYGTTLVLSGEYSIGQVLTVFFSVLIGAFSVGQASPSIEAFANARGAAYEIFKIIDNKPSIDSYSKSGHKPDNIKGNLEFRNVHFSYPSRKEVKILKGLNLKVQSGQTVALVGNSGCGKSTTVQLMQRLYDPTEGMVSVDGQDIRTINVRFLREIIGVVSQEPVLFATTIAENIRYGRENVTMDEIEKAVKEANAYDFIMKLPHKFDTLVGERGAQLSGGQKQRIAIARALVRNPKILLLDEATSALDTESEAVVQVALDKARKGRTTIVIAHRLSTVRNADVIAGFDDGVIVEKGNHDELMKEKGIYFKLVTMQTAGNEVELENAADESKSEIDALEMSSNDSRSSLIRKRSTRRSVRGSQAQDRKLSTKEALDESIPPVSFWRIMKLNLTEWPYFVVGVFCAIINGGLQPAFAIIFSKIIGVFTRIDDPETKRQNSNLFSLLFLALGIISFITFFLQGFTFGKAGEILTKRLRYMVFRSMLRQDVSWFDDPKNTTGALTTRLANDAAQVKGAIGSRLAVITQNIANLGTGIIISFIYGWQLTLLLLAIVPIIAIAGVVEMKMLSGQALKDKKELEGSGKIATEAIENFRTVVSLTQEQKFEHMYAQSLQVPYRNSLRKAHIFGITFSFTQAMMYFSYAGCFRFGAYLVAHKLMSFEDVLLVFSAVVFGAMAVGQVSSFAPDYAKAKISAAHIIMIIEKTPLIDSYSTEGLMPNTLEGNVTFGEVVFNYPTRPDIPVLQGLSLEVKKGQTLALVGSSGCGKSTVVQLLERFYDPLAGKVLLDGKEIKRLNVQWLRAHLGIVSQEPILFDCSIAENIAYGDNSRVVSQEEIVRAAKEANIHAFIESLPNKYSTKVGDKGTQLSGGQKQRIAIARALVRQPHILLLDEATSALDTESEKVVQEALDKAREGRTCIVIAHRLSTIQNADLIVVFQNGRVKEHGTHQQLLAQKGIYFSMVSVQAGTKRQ

Structure (SMILES) | Activity
CCC(=C(c1ccc(O)cc1)c1ccc(OCCN(C)C)cc1)c1ccccc1 | is not a substrate [-]
CC/C(=C(\c1ccccc1)c1ccc(OCCN)cc1)c1ccccc1 [DESMETHYL TAMOXIFEN] | is not a substrate [-]
